The values below come from patent US20080280974A1, “Spiro compounds for treatment of inflammatory disorders” (priority 2007, published 2008).

For data set [1], the system named is IL-8 secreted by human pulmonary artery endothelial cells (HPAEC). The data set can be described thus: In vitro IL-8 assay: TNF-alpha-stimulated IL-8 secretion by HPAEC, ELISA. In kind it is cell-based. The conditions noted are these: Endothelial cell, 10 microM compound, 20 hrs preincubation, then 2 ng/ml TNF-alpha for 4 hrs. As to the method: (§1) In Vitro IL-6 and IL-8 Assays
(§2) Compounds at dosing concentrations (with 0.2% DMSO vehicle) were incubated in EGM2MV cell media at 37° C. for overnight, added to 96-well plates seeded with confluent human pulmonary artery endothelial cells (HPAEC) for 20 hrs at 37° C., and then replaced with fresh dosing media containing 2 ng/ml tumor necrosis factor alpha for additional 4 hrs at 37° C. Afterwards, media was removed and used in ELISA assay to quantify the amount of IL-6 and IL-8 secreted by the cells using R&D Systems Duoset ELISA kits.
(An ELISA detects its analyte on a solid surface through an enzyme-linked reagent.)

Data set [2] deals with IL-6 secreted by human pulmonary artery endothelial cells (HPAEC). The data set can be described thus: In vitro IL-6 assay: TNF-alpha-stimulated IL-6 secretion by HPAEC, ELISA. In kind it is cell-based. The note with it: Endothelial cell, 10 microM compound, 20 hrs preincubation, then 2 ng/ml TNF-alpha for 4 hrs. As to the method:
as §1, §2

Data set [3] has as its system Balb/CJ mice, ovalbumin-sensitized and challenged. The data set can be described thus: Mouse model of asthma: methacholine-induced airway reactivity (Penh) in ovalbumin-sensitized mice. In kind it is in vivo. The note with it: po, 768 h, 50 mg/kg p.o., days 26-32, % inhibition of the PenH vs McH dose AUC compared with vehicle control, day 32, read-out: Reduction of Penh AUC at 50 mg/kg p.o. As to the method:
Protocol for Testing Compounds in a Mouse Model of Asthma
Male 5-6 week old Balb/CJ mice were obtained from Jackson Laboratories (Bar Harbor, Me.). All experimental animals were used in accordance to Institutional Animal Care and Use Committee of AtheroGenics, Inc. Mice were sensitized by administering an intraperitoneal injection of 20 μg of ovalbumin (Calbiochem, La Jolla, Calif.) adsorbed in 2 mg of alum (Imject Alum; Pierce, Rockford, Ill.) on day 0 and 14. A group of mice received saline and served as negative control animals. The mice were challenged by aerosol exposure to ovalbumin (1% [wt/vol]) for 25 minutes on 3 consecutive days (days 28, 29, and 30) in a plexiglas exposure chamber coupled to an Aeroneb nebulizer (Buxco Electronics, Wilmington, N.C.). Experimental compounds were dissolved in Glycofurol/PEG 300/Tween (35%/55%/10%) (Sigma-aldrich; Milwaukee, Wis.). Animals were dosed orally with either test compound or vehicle (6 ml/kg dosing volume) on days 26-32 of study. Compound or vehicle was administered 2 hour before the aerosol challenge on days 28, 29, and 30 and 1 hour before airway reactivity measurement on day 32.
Methacholine-induced airway reactivity was assessed on day 32. Methacholine was administered in increasing concentrations ([…], 1.5, 3, 6, 12, 25, and 50 mg/ml) to unrestrained mice. Increases in airway resistance to Methacholine were determined as enhanced pause, (Penh) values, during and after the exposure (6-minute total analysis time). Mice were then humanely euthanized with an overdose of ketamine/xylazine and plasma samples collected for determination of drug levels. The data is presented as the % inhibition of the PenH vs McH dose AUC compared with the vehicle control.
Data analysis was conducting using the software package, JMP (SAS Institute Inc; Cary, N.C.). The Dunnett's multiple comparison test was used to compare treatment group means to the vehicle control group. P values of less than 0.05 were considered statistically significant. The data (Table 1) are presented as the % inhibition of the PenH vs McH dose AUC compared with the vehicle control.

Each structure is given as a SMILES string.

The compound `Cc1cc2c(cc1O)C(C)(C)CC1(CC(C)(C)c3cc(OCCCCO)c(C)cc3O1)O2` (racemic) registered a melting point of 235 to 236 °C. `C=CCOc1cc2c(cc1C)OC1(CC(C)(C)c3cc(O)c(C)cc3O1)CC2(C)C` (racemic): the melting point was 143 to 144 °C. Take `Cc1cc2c(cc1O)C(C)(C)CC1(CC(C)(C)c3cc(OCCO)c(C)cc3O1)O2` (racemic) [Example 1, (±)-6′-Hydroxy-6-(2-hydroxyethoxy)-4,4,4′,4′,7,7′-hexamethyl-2,2′-spirobichroman]: the melting point was in the range of 186 to 188 °C. This compound returned an inhibition at 10 µM in data set [1] of 0%. This compound displayed an inhibition at 10 µM in data set [2] of 20%. Moreover, the inhibition in vivo at 50 mg/kg in data set [3] was < 20%. For `Cc1cc(C)n(CCOc2cc3c(cc2C)OC2(CC(C)(C)c4cc(O)c(C)cc4O2)CC3(C)C)n1` (racemic) [Example 2, (±)-6′-Hydroxy-6-[2-(3,5-dimethyl-1H-pyrazol-1-yl)ethoxy]-4,4,4′,4′,7,7′-hexamethyl-2,2′-spirobichroman], the inhibition at 10 µM in data set [1] turned out to be 12%; in data set [2], 9%. Also, the inhibition in vivo at 50 mg/kg in data set [3] is < 20%. The matching figures for `Cc1cc2c(cc1O)C(C)(C)CC1(CC(C)(C)c3cc(OCCCn4cccn4)c(C)cc3O1)O2` (racemic) [Example 4, (±)-6′-Hydroxy-6-[3-(1H-pyrazol-1-yl)propoxy]-4,4,4′,4′,7,7′-hexamethyl-2,2′-spirobichroman]: 0%, 44% and < 20%. With `Cc1cc2c(cc1O)C(C)(C)CC1(CC(C)(C)c3cc(OCCCn4ccnc4)c(C)cc3O1)O2` (racemic) [Example 6, (±)-6′-Hydroxy-6-[3-(1H-imidazol-1-yl)propoxy]-4,4,4′,4′,7,7′-hexamethyl-2,2′-spirobichroman], the melting point was 209 to 211 °C. The compound also yielded an inhibition at 10 µM in data set [1] of 5%. Moreover, in data set [2], testing at 10 µM gave an inhibition of 24%. With `Cc1cc2c(cc1O)C(C)(C)CC1(CC(C)(C)c3cc(OC(C)(C)C(=O)O)c(C)cc3O1)O2` (racemic) [Example 8, (±)-(6′-Hydroxy-4,4,4′,4′,7,7′-hexamethyl-2,2′-spirobichroman-6-yloxy)-dimethylacetic acid], the inhibition at 10 µM in data set [1] was 25%; in data set [2] it was 42%. For the same compound, the inhibition in vivo at 50 mg/kg in data set [3] is > 40%. In the case of `Cc1cc2c(cc1O)C(C)(C)C[C@]1(CC(C)(C)c3cc(OC(C)(C)C(=O)O)c(C)cc3O1)O2` (racemic) [Example 9, (±)-(R)-(6′-Hydroxy-4,4,4′,4′,7,7′-hexamethyl-2,2′-spirobichroman-6-yloxy)-dimethylacetic acid], in data set [3], the inhibition in vivo at 50 mg/kg is > 40%. `Cc1cc2c(cc1O)C(C)(C)CC1(CC(C)(C)c3cc(OC(C)(C)CO)c(C)cc3O1)O2` (racemic) [Example 11, (±)-6-(2-Hydroxy-1,1-dimethyl-ethoxy)-6′-hydroxy-4,4,4′,4′,7,7′-hexamethyl-2,2′-spirobichroman] yielded a melting point of 188 to 189 °C. Besides, in data set [3], the inhibition in vivo at 50 mg/kg is < 20%. The matching figures for `Cc1cc2c(cc1O)C(C)(C)CC1(CC(C)(C)c3cc(OCC(N)=O)c(C)cc3O1)O2` (racemic) [Example 14, (±)-(6′-Hydroxy-4,4,4′,4′,7,7′-hexamethyl-2,2′-spirobichroman-6-yloxy)-acetamide]: 220 to 221 °C and < 20%. `Cc1cc2c(cc1O)C(C)(C)CC1(CC(C)(C)c3cc(OCCCn4nc(CO)cc4C)c(C)cc3O1)O2` (racemic) [Example 17, (±)-6′-Hydroxy-6-[3-(3-hydroxymethyl-5-methyl-1H-pyrazol-1-yl)propoxy]-4,4,4′,4′,7,7′-hexamethyl-2,2′-spirobichroman]: the melting point is 217 to 219 °C. For the same compound, the inhibition in vivo at 50 mg/kg in data set [3] lay within 20 to 40%.

On to `Cc1cc(CO)n(CCCOc2cc3c(cc2C)OC2(CC(C)(C)c4cc(O)c(C)cc4O2)CC3(C)C)n1` (racemic) [Example 18, (±)-6′-Hydroxy-6-[3-(5-hydroxymethyl-3-methyl-1H-pyrazol-1-yl)propoxy]-4,4,4′,4′,7,7′-hexamethyl-2,2′-spirobichroman], for which the melting point lay in the range of 208 to 210 °C. The same compound displayed an inhibition at 10 µM in data set [1] of 5%. In data set [2], 10 µM produced 41% inhibition.

`Cc1cc2c(cc1O)C(C)(C)CC1(CC(C)(C)c3cc(OCC(C)(C)O)c(C)cc3O1)O2` (racemic) [Example 19, (±)-6′-Hydroxy-6-(2-hydroxy-2-methylpropoxy)-4,4,4′,4′,7,7′-hexamethyl-2,2′-spirobichroman]: the inhibition in vivo at 50 mg/kg in data set [3] was < 20%. For the compound `COc1cc2c(cc1C)OC1(CC2(C)C)CC(C)(C)c2cc(OCC(=O)O)c(C)cc2O1` (racemic) [Example 20, (±)-(6′-Methoxy-4,4,4′,4′,7,7′-hexamethyl-2,2′-spirobichroman-6-yloxy)-acetic acid], the melting point lay in the range of 195 to 197 °C. The inhibition in vivo at 50 mg/kg in data set [3] was < 20%. Compound `C=CCc1c(O)c(C)cc2c1C(C)(C)CC1(CC(C)(C)c3cc(O)c(C)cc3O1)O2` (racemic) [Example 22, (±)-6,6′-Dihydroxy-5-allyl-4,4,4′,4′,7,7′-hexamethyl-2,2′-spirobichroman] came in with a melting point of 102 to 104 °C. Besides, in data set [3], the inhibition in vivo at 50 mg/kg was < 20%. For the compound `C=CCc1c(O)c(C)cc2c1C(C)(C)CC1(CC(C)(C)c3c(cc(C)c(O)c3CC=C)O1)O2` (racemic) [Example 23, (±)-6,6′-Dihydroxy-5,5′-diallyl-4,4,4′,4′,7,7′-hexamethyl-2,2′-spirobichroman], the melting point lay within 95 to 97 °C. The inhibition in vivo at 50 mg/kg in data set [3] was < 20%. On to `Cc1cc2c(cc1O)C(C)(C)CC1(CC(C)(C)c3cc(O)c(C)cc3O1)O2` (racemic) [Example 24, (±)-6,6′-Dihydroxy-4,4,4′,4′,7,7′-hexamethyl-2,2′-spirobichroman], for which the inhibition at 10 µM in data set [1] stood at 51%; in data set [2] it was 65%. The inhibition in vivo at 50 mg/kg in data set [3] lay within 20 to 40%. On to `Cc1cc2c(cc1O)C(C)(C)CC1(CC(C)(C)c3cc(OCC(=O)OCc4ccccc4)c(C)cc3O1)O2` (racemic) [Example 25, (±)-(6′-Hydroxy-4,4,4′,4′,7,7′-hexamethyl-2,2′-spirobichroman-6-yloxy)-acetic acid Benzyl Ester], for which the melting point lay in the range of 60 to 65 °C. With `Cc1cc2c(cc1O)C(C)(C)CC1(CC(C)(C)c3cc(OCC(=O)O[C@@H]4C[C@H](C)CC[C@H]4C(C)(C)c4ccccc4)c(C)cc3O1)O2` (mixture of isomers) [Example 26, (±)-(6′-Hydroxy-4,4,4′,4′,7,7′-hexamethyl-2,2′-spirobichroman-6-yloxy)-acetic acid 5(R)-Methyl-2(S)-(1-methyl-1-phenylethyl)-1(R)-cyclohexyl Ester], the melting point was in the range of 88 to 93 °C. For the compound `Cc1cc2c(cc1O)C(C)(C)CC1(CC(C)(C)c3cc(O)c(C)cc3O1)O2` (single isomer, unassigned) [Example 28], in data set [3], the inhibition in vivo at 50 mg/kg is 20 to 40%. As to `Cc1cc2c(cc1O)C(C)(C)CC1(CC(C)(C)c3cc(OC(C)(C)C(=O)O)c(C)cc3O1)O2` (stereo in doubt) [Example 10, (−)-(S)-(6′-Hydroxy-4,4,4′,4′,7,7′-hexamethyl-2,2′-spirobichroman-6-yloxy)-dimethylacetic acid], in data set [3], the inhibition in vivo at 50 mg/kg is < 20%.

In turn, `C=CCOc1cc2c(cc1C)OC1(CC2(C)C)CC(C)(C)c2cc(OCC=C)c(C)cc2O1` [Example 16, (±)-6,6′-Bisallyloxy-4,4,4′,4′,7,7′-hexamethyl-2,2′-spirobichroman] registered a melting point of 98 to 100 °C. Turning to `Cc1cc2c(cc1O)C(C)(C)CC1(CC(C)(C)c3cc(O)c(C)cc3O1)O2` [Example 27, (−)-(S)-6,6′-dihydroxy-4,4,4′,4′,7,7′-hexamethyl-2,2′-spirobichroman], the melting point was in the range of 165 to 166 °C. Besides, the inhibition in vivo at 50 mg/kg in data set [3] is > 40%.

The melting point is the temperature, or range, at which the solid turns liquid. By inhibition is commonly meant the change of the read-out against control, counted positive when it falls. Lower therefore signals a response near the control.
